Measurements reported in patent US7091199B1, “Thienoisoxazole phenoxy unsubstituted ethyl and propyl derivatives useful as d4 antagonists” (Aventis Pharmaceuticals Inc., priority 1999, dated 2006).
pKi: −log10 of the molar value. Counter-ions that a name gives are not always drawn.

target: T1, human D4 receptor (D4.2 sub-type) (Homo sapiens, UniProt P21917, DEL271-302); test: D4 receptor binding assay (3H-spiperone displacement); conditions: 3H-spiperone 0.25 nM, HEK cell membranes, human D4.2; read-out: D4 RBA Ki
T1 sequence (P21917 with tags, fused parts or gaps DEL271-302): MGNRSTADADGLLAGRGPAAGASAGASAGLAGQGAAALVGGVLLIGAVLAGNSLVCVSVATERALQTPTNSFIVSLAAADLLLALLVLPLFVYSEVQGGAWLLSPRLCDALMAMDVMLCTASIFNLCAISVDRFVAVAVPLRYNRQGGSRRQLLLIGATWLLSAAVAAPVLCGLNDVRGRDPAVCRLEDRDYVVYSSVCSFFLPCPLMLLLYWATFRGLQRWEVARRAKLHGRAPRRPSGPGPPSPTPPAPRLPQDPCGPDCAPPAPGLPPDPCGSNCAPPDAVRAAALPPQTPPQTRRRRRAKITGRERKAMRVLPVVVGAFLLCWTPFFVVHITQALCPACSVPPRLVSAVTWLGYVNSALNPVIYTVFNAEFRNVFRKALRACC
Description: D4 receptor-binding affinities of the compounds were evaluated according to their ability to reduce binding of ^3H-spiperone as compared to the reference compound clozapine. The potency of the test compound to reduce ^3H-spiperone binding directly correlated to its binding affinity for the receptor.
[…] (human embryonic kidney) cells stably transfected with human D4 receptor (D4.2 sub-type) were grown in NUNC cell factories for 5 days (75% confluency) without a media change and removed with versene (approximately 19 mg of cells per cell factory tray). The cells were then centrifuged in a Sorval centrifuge for 10 min, 5000 rpm (GS3 rotor) and the pellets quickly frozen in liquid nitrogen and stored at −80° C. until used in binding assay. When used in the assay, cells were thawed on ice for 20 min and then 10 mL of incubation buffer (50 mM Tris, 1 mM EDTA, 4 mM MgCl2, 5 mM KCl, 1.5 mM CaCl2, 120 mM NaCl, pH 7.4) was added. The cells were then vortexed to resuspend pellet and homogenized with a Kinematica, CH-6010 Kriens-LU, homogenizer for 15 seconds at setting 7. Concentration of receptor protein was determined using the Pierce BCA assay.
The incubation was started by the addition of 100 μl (50 μg protein) membrane homogenate to a solution of 300 μl incubation buffer and 100 μl (0.25 nM final conc.) ^3H-spiperone (90 Ci/mmol, Amersham, diluted in borosilicate glass vial) in 96-well polypropylene plates (1 mL per well). The plates were vortexed and incubated at room temperature for 90 minutes. The binding reaction was stopped by filtering using a Packard Harvester. The samples were filtered under vacuum over glass fibre filter plates (Whatman GF/B) presoaked for 2 hours in 0.3% polyethylenimine (PEI) in 50 mM Tris buffer (pH 7.4). The filters were then washed 6 times with 7 mL ice cold 50 mM Tris buffer (pH 7.4). The filter plates were dried overnight and 35 μl of Microscint-O (Packard) was added. The plates were sealed and counted in the Packard Top Count (3 minutes per well).
The incubation was started by the addition of 100 μl (50 μg protein) membrane homogenate to a solution of 200 μl incubation buffer, 100 μl ^3H-spiperone (90 Ci/mmol, Amersham, diluted in borosilicate glass vial to 0.25 nM final conc.) and 100 μl (30 μM final conc.) of fresh dopamine (Research Biochemicals Inc., light protected and dissolved in incubation buffer) in 96-well polypropylene plates (1 mL per well). The plates were vortexed and incubated at room temperature for 90 minutes at which time the binding reaction was stopped by filtering. The filters were washed and counted using the same procedure as in the total binding assay described above to give the non-specific binding value (NSB).
The incubation was started by the addition, in 96-well polypropylene plates (1 mL per well), of 100 μl (50 μg protein) membrane homogenate to a solution of 200 μl incubation buffer, 100 μl (0.25 nM final conc.) ^3H-spiperone (90 Ci/mmol, Amersham, diluted in borosilicate glass vial) and 100 μl of test compound that was prepared from 1 mM stock dissolved in DMSO and stored at −20° C. in polypropylene cryogenic storage vials until dilution in incubation buffer in 96-well polypropylene plates. The plates were vortexed and incubated at room temperature for 90 minutes at which time the binding reaction was stopped by filtering. The filters were washed and counted using the same procedure as in the total binding assay described above to give the displacement binding value (BD).
The test compounds were initially assayed at 1 and 0.1 μM and then at a range of concentrations chosen such that the middle dose would cause about 50% inhibition of ^3H-spiperone binding. Specific binding in the absence of test compound (B0) was the difference of total binding (BT) minus non-specific binding (NSB) and similarly specific binding (in the presence of test compound) (B) was the difference of displacement binding (BD) minus non-specific binding (NSB). […]

Row | pKi | Structure (SMILES)
1 | 7.21 | Fc1ccccc1CNCCCOc1cccc(-c2noc3ccsc23)c1 [Compound 2, (2-fluoro-benzyl)-[3-(3-thieno[2,3-d]isoxazol-3-yl-phenoxy)-propyl]-amine]
2 | 7.89 | COc1cccc(CNCCOc2cccc(-c3noc4ccsc34)c2)c1 [Compound 36, (3-methoxy-benzyl)-[2-(3-thieno[2,3-d]isoxazol-3-yl-phenoxy)-ethyl]-amine]
3 | 7.64 | c1cc(OCCNC23CC4CC(CC(C4)C2)C3)cc(-c2noc3ccsc23)c1 [Compound 47, adamantan-1-yl-[2-(3-thieno[2,3-d]isoxazol-3-yl-phenoxy)-ethyl]-amine]
4 | 7.70 | Cc1ccc(CNCCCOc2cccc(-c3noc4ccsc34)c2)cc1 [Compound 39, (4-methyl-benzyl)-[3-(3-thieno[2,3-d]isoxazol-3-yl-phenoxy)-propyl]-amine]
5 | 7.12 | c1cncc(CNCCCOc2cccc(-c3noc4ccsc34)c2)c1 [Compound 8, pyridin-3-ylmethyl-[3-(3-thieno[2,3-d]isoxazol-3-yl-phenoxy)-propyl]-amine]
6 | 7.57 | c1cc(OCCCNCc2cccs2)cc(-c2noc3ccsc23)c1 [Compound 6, [3-(3-thieno[2,3-d]isoxazol-3-yl-phenoxy)-propyl]-thiophen-2-ylmethylamine]
7 | 7.36 | COc1cccc(CNCCCOc2cccc(-c3noc4ccsc34)c2)c1 [Compound 41, (3-methoxy-benzyl)-[3-(3-thieno[2,3-d]isoxazol-3-yl-phenoxy)-propyl]-amine]
8 | 7.33 | Fc1ccc(CNCCCOc2cccc(-c3noc4ccsc34)c2)cc1F [Compound 42, (3,4-difluoro-benzyl)-[3-(3-thieno[2,3-d]isoxazol-3-yl-phenoxy)-propyl]-amine]
9 | 7.49 | Fc1ccc(CNCCOc2cccc(-c3noc4ccsc34)c2)cc1F [Compound 37, (3,4-difluoro-benzyl)-[2-(3-thieno[2,3-d]isoxazol-3-yl-phenoxy)-ethyl]-amine]
10 | 7.44 | c1cc(OCCNC2Cc3ccccc3C2)cc(-c2noc3ccsc23)c1 [Compound 46, indan-2-yl-[2-(3-thieno[2,3-d]isoxazol-3-yl-phenoxy)-ethyl]-amine hydrochloride]

same assay, conditions: @ 1 μM test compound; 3H-spiperone binding; read-out: D4 RBA % Inhibition (@ 1 μM)

Row | inhibition at 1 µM [%] | Structure (SMILES)
11 | 52 | c1cc(OCCCN2CCc3ccccc3C2)cc(-c2noc3ccsc23)c1 [Compound 45, 2-[3-(3-thieno[2,3-d]isoxazol-3-yl-phenoxy)-propyl]-1,2,3,4-tetrahydroisoquinoline]
12 | 88 | Clc1ccccc1CNCCOc1cccc(-c2noc3ccsc23)c1 [Compound 35, (2-chloro-benzyl)-[2-(3-thieno[2,3-d]isoxazol-3-yl-phenoxy)-ethyl]-amine]
13 | 82 | CCCC1CCN(CCOc2cccc(-c3noc4ccsc34)c2)CC1 [Compound 60, 3-{3-[2-(4-propyl-piperidin-1-yl)-ethoxy]-phenyl}-thieno[2,3-d]isoxazole]
14 | 91 | Fc1ccc(N2CCN(CCCOc3cccc(-c4noc5ccsc45)c3)CC2)cc1 [Compound 11, 3-(3-{3-[4-(4-fluoro-phenyl)-piperazin-1-yl]-propoxy}-phenyl)-thieno[2,3-d]isoxazole]
15 | 54 | c1cc(OCCN2CCCCCCC2)cc(-c2noc3ccsc23)c1 [Compound 63, 3-[3-(2-azocan-1-yl-ethoxy)-phenyl]-thieno[2,3-d]isoxazole]
16 | 60 | c1cc(OCCN2CCc3ccccc3C2)cc(-c2noc3ccsc23)c1 [Compound 29, 2-[2-(3-thieno[2,3-d]isoxazol-3-yl-phenoxy)-ethyl]-1,2,3,4-tetrahydroisoquinoline]
17 | 41 | c1cc(OCCN2CCCC2)cc(-c2noc3ccsc23)c1 [Compound 61, 3-[3-(2-pyrrolidin-1-yl-ethoxy)-phenyl]-thieno[2,3-d]isoxazole]
18 | 95 | c1ccc(N2CCN(CCCOc3cccc(-c4noc5ccsc45)c3)CC2)cc1 [Compound 10, 3-{3-[3-(4-phenyl-piperazin-1-yl)-propoxy]-phenyl}-thieno[2,3-d]isoxazole]
19 | 94 | Fc1ccccc1N1CCN(CCCOc2cccc(-c3noc4ccsc34)c2)CC1 [Compound 12, 3-(3-{3-[4-(2-fluoro-phenyl)-piperazin-1-yl]-propoxy}-phenyl)-thieno[2,3-d]isoxazole]
20 | 94 | c1cc(OCCCNC23CC4CC(CC(C4)C2)C3)cc(-c2noc3ccsc23)c1 [Compound 53, adamantan-1-yl-[3-(3-thieno[2,3-d]isoxazol-3-yl-phenoxy)-propyl]-amine]
21 | 90 | c1cc(OCCN2CCCCCC2)cc(-c2noc3ccsc23)c1 [Compound 62, 3-[3-(2-azepan-1-yl-ethoxy)-phenyl]-thieno[2,3-d]isoxazole]
22 | 94 | c1cc(OCCCN2CCCCC2)cc(-c2noc3ccsc23)c1 [Compound 54, 3-[3-(3-piperidin-1-yl-propoxy)-phenyl]-thieno[2,3-d]isoxazole]
23 | 83 | c1cc(OCCN2CCCCC2)cc(-c2noc3ccsc23)c1 [Compound 48, 3-[3-(2-piperidin-1-yl-ethoxy)-phenyl]-thieno[2,3-d]isoxazole]

The remaining lines, values behind:

Row | Structure (SMILES) | inhibition at 1 µM [%]
24 | Fc1cccc(F)c1CNCCOc1cccc(-c2noc3ccsc23)c1 [Compound 50, (2,6-difluoro-benzyl)-[2-(3-thieno[2,3-d]isoxazol-3-yl-phenoxy)-ethyl]-amine] | 65
25 | Fc1cccc(F)c1CNCCCOc1cccc(-c2noc3ccsc23)c1 [Compound 56, (2,6-difluoro-benzyl)-[3-(3-thieno[2,3-d]isoxazol-3-yl-phenoxy)-propyl]-amine] | 64
26 | c1cc(OCCNC2CCc3ccccc32)cc(-c2noc3ccsc23)c1 (centres unmarked) [Compound 38, indan-1-yl-[2-(3-thieno[2,3-d]isoxazol-3-yl-phenoxy)-ethyl)-amine] | 95
27 | c1cc(OCCCNC2CCc3ccccc32)cc(-c2noc3ccsc23)c1 (centres unmarked) [Compound 43] | 94
28 | Clc1ccccc1CNCCCOc1cccc(-c2noc3ccsc23)c1 [Compound 40, (2-chloro-benzyl)-[3-(3-thieno[2,3-d]isoxazol-3-yl-phenoxy)-propyl]-amine] | 89
29 | FC(F)(F)c1ccccc1CNCCOc1cccc(-c2noc3ccsc23)c1 [Compound 51, [2-(3-thieno[2,3-d]isoxazol-3-yl-phenoxy)-ethyl]-(2-trifluoromethylbenzyl)-amine] | 58
30 | Fc1ccccc1CNCCOc1cccc(-c2noc3ccsc23)c1 [Compound 34, (2-fluoro-benzyl)-[2-(3-thieno[2,3-d]isoxazol-3-yl-phenoxy)-ethyl]-amine] | 93
31 | Clc1ccc(CNCCOc2cccc(-c3noc4ccsc34)c2)cc1Cl [Compound 22, (3,4-dichloro-benzyl)-[2-(3-thieno[2,3-d]isoxazol-3-yl-phenoxy)-ethyl]-amine] | 99
32 | c1cncc(CNCCOc2cccc(-c3noc4ccsc34)c2)c1 [Compound 25, pyridin-3-ylmethyl-[2-(3-thieno[2,3-d]isoxazol-3-yl-phenoxy)-ethyl]-amine] | 93
